Measured values reported in patent US4336400A, “3-(Hydroxy or hydroxymethyl)-4-hydroxy-alpha(aminomethyl)benzyl alcohols and methods of use” (Sterling Drug Inc., priority 1978, dated 1982).
Several values for one entry are separate records, joined by “and”; a condition that tells them apart may be missing. Identical values can stand only once. Counter-ions that a name gives are not always drawn.

How the values were obtained:
[1] = system: guinea pig bronchioles constricted by carbachol; test: Bronchodilator Test Method II: in vitro, perfused guinea pig lung, bronchioles constricted by carbachol; details: for Bronchodilator Action, Duration (min) Mean: dose mcg(base) given
Protocol: Bronchodilator activity was tested in anesthetized dogs (Test Method I) and in vitro on the perfused guinea pig lung (Test Method II), using the following pharmacological test procedures:
In this method bronchodilator activity in vitro was determined by testing the effect of graded doses of the test compounds on guinea pig bronchioles constricted by carbachol, using the technique reported by Sollman and von Oettingen, Proc. Soc. Exp. Biol. Med., 25, 692 (1928) as modified by Tainter, Pedden, and James, J. Pharm. Exp. Ther., 51, 371 (1934) and by Luduena, von Euler, Tuller, and Lands, Arch. Intern. Pharmacol., III, 392 (1957).

normal airway pressure = test: Control bronchoconstriction in anesthetized dog; format: in vivo; details: i.v., carbachol 4 to 6 micrograms per kilogram, histamine diphosphate 35 to 45 micrograms per kilogram, majority of test animals
Protocol: Test Method I: Male and female dogs weighing 9-18 kg. each were anesthetized with pentobarbital sodium (30 mg./kg. i.v.). Each animal, with thorax opened at the mid-sternum, was maintained under artificial ventilation using a constant volume pump (250 ml./stroke; ten to twelve strokes per minute) attached to the tracheal cannula. The flow of air was controlled by a glass or plastic valve which closed and opened respectively on inflow and outflow of the air to and from the tracheal cannula. Bronchoconstriction and/or bronchodilatation were measured from changes in the basal airway pressure reflected by a transducer attached to the sidearm of the cannula relayed to a polygraph.
Control bronchoconstrictions were induced by intravenous injections of carbachol (choline chloride carbamate) in doses ranging from 4 to 6 micrograms per kilogram or histamine diphosphate in doses ranging from 35 to 45 micrograms per kilogram.

[2] = Solubility, pH of solution and precipitation; format: physicochemical; details: for precipitation on dilution of a 1 percent dimethyl sulfoxide solution with three volumes of water: 1 percent solution in dimethyl sulfoxide; for precipitation on dilution of a 1 percent glycerol formal solution with three volumes of water: 1 percent solution in glycerol formal; for precipitation when the pH was adjusted to 7.0 with N/10 sodium hydroxide: 1 percent aqueous solution, pH 7.0
diastolic blood pressure = test: Effect on diastolic blood pressure in the anesthetized dog, intravenous; format: in vivo; details: i.v., dose (salt) mcg/kg
Protocol: Injections were repeated at 20-30 minutes.
Cardiovascular Studies The effect of a rapid intravenous injection on the heart rate was conducted in anesthetized dogs under normal respiration. A few open-chest dogs were also tested. Increase in heart rate was measured by using an electrocardiograph attached to the dog. Readings were taken every 0.5-1 minutes for the first 10 minutes and every 2-5 minutes thereafter until recovery. In some cases, several doses and more than one compound were tested alternately in the same dog. The blood pressure effect was simultaneously recorded.

Compound	ED50 ([1]; Doryl conc. 1:5 million)	Bronchodilator Action, Duration (min) Mean ([1]; Doryl conc. 1:5 million) [min]	further results
CC(C)(C)NCC(O)c1ccc(OC(=O)C2(C)CC2)c(OC(=O)C2(C)CC2)c1.Cl (stereo not drawn) [Example 13, 3,4-bis(1-methylcyclopropanecarbonyloxy)-alpha-(tert-butylaminomethyl)benzyl alcohol hydrochloride]	0.45 mcg(base)	15 ± 1.7	
NCCc1c[nH]cn1 [histamine diphosphate]			increase in the normal airway pressure or amplitude (normal airway pressure): 100-200%
CC(C)(C)NCC(O)c1ccc(OC(=O)C(C)(C)C)c(OC(=O)C(C)(C)C)c1.Cl (stereo not drawn) [Example 5, 3,4-bis(pivalyloxy)-alpha-(tert-butylaminomethyl)-benzyl alcohol hydrochloride]	0.94 mcg(base)	18 ± 4.2	
COc1ccc(C(=O)Oc2ccc(C(O)CNC(C)(C)C)cc2OC(=O)c2ccc(OC)cc2)cc1.Cl (stereo not drawn) [Example 33, 3,4-bis(p-anisoyloxy)-alpha-(tert-butylaminomethyl)-benzyl alcohol hydrochloride]	6.9 mcg(base)	32 ± 5	precipitation on dilution of a 1 percent dimethyl sulfoxide solution with three volumes of water [2]: no precipitate formed; precipitation on dilution of a 1 percent glycerol formal solution with three volumes of water [2]: no precipitate formed
CC(C)(C)NCC(O)c1ccc(OC(=O)c2ccccc2)c(OC(=O)c2ccccc2)c1.Cl (stereo not drawn) [Example 29, 3,4-bis(benzoyloxy)-alpha-(tert-butylaminomethyl)-benzyl alcohol hydrochloride]	1.1 mcg(base)	34 ± 6.4	precipitation on dilution of a 1 percent dimethyl sulfoxide solution with three volumes of water [2]: no precipitate formed; precipitation on dilution of a 1 percent glycerol formal solution with three volumes of water [2]: no precipitate formed
CC(C)(C)CC(=O)Oc1ccc(C(O)CNC(C)(C)C)cc1OC(=O)CC(C)(C)C.Cl (stereo not drawn) [Example 7, 3,4-bis(3,3-dimethylbutanoyloxy)-alpha-(tert-butylaminomethyl)benzyl alcohol hydrochloride]	23 mcg(base)	85 ± 17	
CCC(C)CC(=O)Oc1ccc(C(O)CNC(C)(C)C)cc1OC(=O)CC(C)CC.Cl (stereo not drawn) [Example 6, 3,4-bis(3-methylpentanoyloxy)-alpha-(tert-butylaminomethyl)benzyl alcohol hydrochloride]	1.3 mcg(base)	43 ± 3.7	
CC(C)C(=O)Oc1ccc(C(O)CNC(C)(C)C)cc1OC(=O)C(C)C.Cl (stereo not drawn) [Example 2, 3,4-bis(isobutyryloxy)-alpha-(tert-butylaminomethyl)-benzyl alcohol hydrochloride]	0.28 mcg(base)	9 ± 1.1	
CC(C)(C)NCC(O)c1ccc(OC(=O)C2CCCCC2)c(OC(=O)C2CCCCC2)c1.Cl (stereo not drawn) [Example 15, 3,4-bis(cyclohexanecarbonyloxy)-alpha-(tert-butylaminomethyl)benzyl alcohol hydrochloride]	1.3 mcg(base)	53 ± 7	precipitation on dilution of a 1 percent dimethyl sulfoxide solution with three volumes of water [2]: no precipitate formed
C[N+](C)(C)CCOC(N)=O [carbachol, choline chloride carbamate]			increase in the normal airway pressure or amplitude (normal airway pressure): 100-200%
CC(C)CC(=O)Oc1ccc(C(O)CNC(C)(C)C)cc1OC(=O)CC(C)C.Cl (stereo not drawn) [Example 3, 3,4-bis(isovaleryloxy)-alpha-(tert-butylaminomethyl)benzyl alcohol hydrochloride]	0.6 mcg(base)	18 ± 4	precipitation when the pH was adjusted to 7.0 with N/10 sodium hydroxide [2]: a precipitate formed
Cc1ccc(C(=O)Oc2ccc(C(O)CNC(C)(C)C)cc2OC(=O)c2ccc(C)cc2)cc1 (stereo not drawn) [Example 30, 3,4-bis(p-toluyloxy)-alpha-(tert-butylaminomethyl)-benzyl alcohol methanesulfonate]			Mean Decrease in Diastolic Blood Pressure in % (diastolic blood pressure): 2% and 11% and 11.5%
CCC(C)C(=O)Oc1ccc(C(O)CNC(C)(C)C)cc1OC(=O)C(C)CC.Cl (stereo not drawn) [Example 4, 3,4-bis(2-methylbutanoyloxy)-alpha-(tert-butylaminomethyl)benzyl alcohol hydrochloride]	0.45 mcg(base)	20 ± 3	
CC(C)CC(=O)Oc1cc(C(O)CNC(C)(C)C)ccc1OC(=O)C(C)(C)C.Cl (stereo not drawn) [Example 71, 3-(isovaleryloxy)-4-(pivalyloxy)-alpha-(tert-butylaminomethyl)benzyl alcohol hydrochloride]	0.63 mcg(base)	26	
CCC(NC1CCCC1)C(O)c1ccc(OC(=O)CC(C)C)c(OC(=O)CC(C)C)c1.Cl (stereo not drawn) [Example 138, 3,4-bis(isovaleryloxy)-alpha-[1-(cyclopentylamino)propyl]benzyl alcohol hydrochloride]	0.46 mcg(base)	25.4 ± 3.5	
CCCC(=O)Oc1ccc(C(O)CNC(C)(C)C)cc1OC(=O)CCC.Cl (stereo not drawn) [Example 1, 3,4-bis(butyryloxy)-alpha-(tert-butylaminomethyl)-benzyl alcohol hydrochloride]	0.23 mcg(base)	9 ± 1.0	precipitation when the pH was adjusted to 7.0 with N/10 sodium hydroxide [2]: a precipitate formed
CC(C)NCC(O)c1ccc(O)c(O)c1 (stereo not drawn) [Ref. Cpd. II, 3,4-Dihydroxy-alpha-(isopropylaminomethyl)benzyl alcohol, reference compound]		5	
CC(C)(C)NCC(O)c1ccc(O)c(O)c1 (stereo not drawn) [Ref. Cpd. I, 3,4-Dihydroxy-alpha-(tert-butylaminomethyl)benzyl alcohol, reference compound]	0.18 mcg(base)	5 ± 1.4	
CCC(NC(C)(C)C)C(O)c1ccc(OC(=O)c2ccc(C)cc2)c(OC(=O)c2ccc(C)cc2)c1 (stereo not drawn) [Example 144, 3,4-bis(p-toluyloxy)-alpha-[1-(tert-butylamino)-propyl]benzyl alcohol hydrochloride]		83 ± 26.8	
COc1ccc(C(=O)Oc2ccc(C(O)CNC(C)(C)C)cc2OC(=O)c2ccccc2)cc1.Cl (stereo not drawn) [Example 143, 3-benzoyloxy-4-(p-anisoyloxy)-alpha-(tert-butylaminomethyl)benzyl alcohol hydrochloride]			ED50 ([1]; Doryl conc. 1:10 million): 1.53 mcg(base); Bronchodilator Action, Duration (min) Mean ([1]; Doryl conc. 1:10 million): 29.2 ± 10.2 min
COc1ccc(C(=O)Oc2ccc(C(O)CNC(C)(C)C)cc2COC(C)=O)cc1 (stereo not drawn) [Example 151, 3-(acetoxymethyl)-4-(p-anisoyloxy)-alpha-(tert-butylaminomethyl)benzyl alcohol methanesulfonate]			Mean Decrease in Diastolic Blood Pressure in % (diastolic blood pressure): 10%
